Assay results as given in patent US20110009351A1, “SCREENING ASSAY TO IDENTIFY CORRECTORS OF PROTEIN TRAFFICKING DEFECTS” (Traffick Therepeutics Inc., priority 2007, published 2011).
Where a name gives a salt, the structure may show the parent alone.

Key:
[1] = target: ΔF508-CFTR (Homo sapiens, UniProt P13569, DEL508-508); assay type: cell-based; design: which was then ligated into full length pNUT-CFTR linearized using Hpa1 and Pml1; expressed in transfected cells; conditions: for signal in the trafficking assay / ΔF508-CFTR correctors identified by highthroughput screening: hit class: Microsource Discovery library, 20 μM; for signal in the trafficking assay: medium and weak hits; for hit in screen (class letter) / hit in screen (score): Prestwick library, initial corrector assay; for hit in screen (class letter) / ΔF508-CFTR correctors identified by highthroughput screening: hit class: BHK cells; for hit in screen (score): standard deviations above untreated controls; for ΔF508-CFTR correctors identified by highthroughput screening: hit class: 37° C.
ΔF508-CFTR, sequence (P13569 with tags, fused parts or gaps DEL508-508): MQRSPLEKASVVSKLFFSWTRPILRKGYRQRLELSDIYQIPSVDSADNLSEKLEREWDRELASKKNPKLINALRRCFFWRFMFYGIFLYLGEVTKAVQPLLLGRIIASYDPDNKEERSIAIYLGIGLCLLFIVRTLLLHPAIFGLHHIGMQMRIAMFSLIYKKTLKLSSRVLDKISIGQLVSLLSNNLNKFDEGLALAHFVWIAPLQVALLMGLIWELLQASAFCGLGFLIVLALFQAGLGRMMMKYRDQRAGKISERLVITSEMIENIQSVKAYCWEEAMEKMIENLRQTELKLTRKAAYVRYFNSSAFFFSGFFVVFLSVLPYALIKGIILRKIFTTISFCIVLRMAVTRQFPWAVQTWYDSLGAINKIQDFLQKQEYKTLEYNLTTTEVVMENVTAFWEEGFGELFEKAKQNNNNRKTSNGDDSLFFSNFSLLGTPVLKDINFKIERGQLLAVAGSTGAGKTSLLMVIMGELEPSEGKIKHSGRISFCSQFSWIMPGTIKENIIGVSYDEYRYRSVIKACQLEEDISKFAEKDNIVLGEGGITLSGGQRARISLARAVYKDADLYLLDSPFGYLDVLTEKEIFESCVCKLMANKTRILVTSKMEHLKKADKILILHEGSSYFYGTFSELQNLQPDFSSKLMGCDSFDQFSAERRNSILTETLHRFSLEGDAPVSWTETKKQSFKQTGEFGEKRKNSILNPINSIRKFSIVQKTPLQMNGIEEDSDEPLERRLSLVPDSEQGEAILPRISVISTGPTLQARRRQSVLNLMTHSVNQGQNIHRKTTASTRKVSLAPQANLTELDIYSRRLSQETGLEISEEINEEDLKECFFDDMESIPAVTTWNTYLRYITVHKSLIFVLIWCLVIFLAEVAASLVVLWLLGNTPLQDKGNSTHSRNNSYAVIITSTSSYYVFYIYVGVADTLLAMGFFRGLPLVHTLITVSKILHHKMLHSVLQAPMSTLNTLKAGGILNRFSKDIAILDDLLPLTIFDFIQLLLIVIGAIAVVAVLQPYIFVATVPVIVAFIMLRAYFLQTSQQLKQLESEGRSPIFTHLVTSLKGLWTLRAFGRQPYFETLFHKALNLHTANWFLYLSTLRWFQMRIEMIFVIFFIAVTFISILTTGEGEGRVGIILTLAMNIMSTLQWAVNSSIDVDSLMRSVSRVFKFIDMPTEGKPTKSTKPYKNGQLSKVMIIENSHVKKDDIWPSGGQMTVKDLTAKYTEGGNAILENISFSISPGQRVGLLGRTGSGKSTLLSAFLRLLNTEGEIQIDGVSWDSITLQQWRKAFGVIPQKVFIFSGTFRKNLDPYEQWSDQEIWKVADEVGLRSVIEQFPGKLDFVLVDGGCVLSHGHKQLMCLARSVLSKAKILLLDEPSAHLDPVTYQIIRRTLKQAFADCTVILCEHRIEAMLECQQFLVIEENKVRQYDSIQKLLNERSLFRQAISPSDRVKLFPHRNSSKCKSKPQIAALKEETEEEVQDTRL
Description: BHK cells expressing 3HA-tagged ΔF508-CFTR between passages 5-8 were seeded in 96-well plates (Corning half area, black-sided, clear bottom) at 15,000 cells per well and incubated with culture medium for 24 h at 37° C. Each well was then treated with a different test compound (80 compounds per plate) for 24 h at 20 μM final concentration. The remaining 16 wells on each plate were used for control conditions. […] Cells were fixed in a 4% paraformaldehyde solution, washed with PBS, and blocked with PBS containing 5% fetal bovine serum (FBS) for 1 hat 4° C.
Blocking solution was replaced with 15 μl of primary antibody solution containing 1% FBS and mouse monoclonal anti-HA antibody (1:150 dilution, Sigma) in PBS. The plates were sealed and left at 4° C. overnight. After three washes with 100 μl PBS, cells were incubated for 1 h with 15 μl of secondary antibody solution containing 1% FBS and anti-mouse IgG conjugated with FITC (1:100 dilution, Sigma) in PBS. Cells were again washed three times with 100 μl of PBS and analyzed in a plate reader (Analyst™ HT96.384, Biosystems; 488 nm excitation/510 nm emission). […] The mean fluorescence of four untreated wells was used as the background signal when calculating deviations of the 80 compound-treated wells. Hits were then cherry-picked into reservoir plates and re-tested in duplicate using the same assay.
BHK cells expressing ΔF508-CFTR were incubated with test compounds (20 μM) for 24 hours at 37° C. in a 96 well format. Plasma membrane expression of ΔF508-CFTR was then assayed by immunofluorescence using a primary antibody directed against the inserted 3HA tag and a secondary antibody conjugated with a fluorophore (FITC). […] The positive compounds were selected and retested in duplicate to obtain an N of 3. At the re-screening stage, the intrinsic fluorescence of each potential hit was also measured and the fluorescent ones were not considered further.
Screening was performed using BHK cells that stably express F508-CFTR bearing three tandem haemagglutinin-epitope tags (3HA) and linker sequences in the fourth extracellular loop after amino acid 901 (Howard et al., 1995; Carlile et al., 2007; Robert et al., 2008). […] Screening was performed using the Prestwick Chemical Library of 1120 high-purity compounds.

[2] = target: T1, F508del CFTR (Homo sapiens, UniProt P13569, DEL508-508); test: YFP fluorescence quenching functional assay (iodide influx), HEK293 cells with F508del CFTR and halide sensitive YFP; assay type: cell-based; conditions: 10 μM, 24 h, nc = 100% pc = 69.2; for remaining activity at 10 µM: HEK293, read-out: % YFP quench
T1 construct: expressed in transfected cells; host or cells: HEK293 Griptite cells stably expressing F508del CFTR, transiently transfected with halide-sensitive eYFP
T1 sequence (P13569 with tags, fused parts or gaps DEL508-508): as above
Description: In addition to the MDS compounds, the 1120 Prestwick Library compounds were screened. (See FIGS. 7 to 12.) Of the compounds, one qualified as a “strong” hit, 3 as “medium” hits and 57 as “weak” hits. The Z score for the assay was 0.62. The top 50 hits were further tested in a counter screen in which the halide sensitive fluorescent compound (YFP) was expressed inside cells (Table 2). After incubation with the test compounds the ability of the cells to uptake iodide was measure by decreasing YFP fluorescence. In these cells this can only occur if functional CFTR is present at the cell surface (FIG. 7). The hits were also tested for the appearance of the Band C form of CFTR. […] The functionality of the compounds was further studied by the use of Iodide efflux assays for each compound in both BHK and the more physiologically relevant CFBE cells. […] FIG. 10 is a table of results for the 15 hit compounds which summarizes many experiments. […] The results for the best 15 compounds from the Prestwick Library, or “Prestwick 15”, are shown FIGS. 8, 9 and 10.
Strongly adhesive Human […] Kidney cells stably expressing both the human macrophage scavenger receptor (HEK293 Griptite, Invitrogen) and F508del CFTR were plated in 96-well plates and transiently transfected with pcDNA3 plasmid encoding a halide sensitive variant of eYFP. After 24-48 h later cells were exposed to 10 μM test compound in triplicate and incubated for an additional 24 h. Cells were stimulated for 20 minutes with a in a buffer containing 25 μM forskolin, 45 μM IBMX and 50 μM genistein final concentration. The high content screening assay was performed using a Cellomics platform. Iodide was added robotically to a final concentration of 50 mM and the resulting decrease in fluorescence was measured. Images were taken at time 0 and stored for subsequent use when calculating a mask so that only those cells that express YFP at time 0 are measured. The quenching was detected in 15 images taken over the course of an experiment lasting 40 seconds. Each test compound was compared to the following two controls: a negative control without drugs to assess photobleaching that may occur when the same field of view is repeatedly imaged, and a positive control with cells treated with a known potentiator. Results were generated from 150-300 cells per well.

Molecule	hit in screen (class letter) [1]	hit in screen (score) [1]	remaining activity at 10 µM [2]	further results
1-deacetoxy-1-oxo-3,7 dideactyl khivorin				signal in the trafficking assay ([1]; 24 hours): consistently elevated signal
CN(Cc1cnc2nc(N)nc(N)c2n1)c1ccc(C(=O)N[C@@H](CCC(=O)O)C(=O)O)cc1 (racemic) [Amethopterin (R, S)]	W (Medium and weak hits were defined as compounds giving a cell fluorescence signal that was between 2 and 3 or 1 and 2 standard deviations, respectively, above untreated control wells)	1.2		% YFP quench [2]: 109%
OCC(O)CN1CCN(c2ccccc2)CC1 (racemic) [Dropropizine (R, S)]	W (Medium and weak hits were defined as compounds giving a cell fluorescence signal that was between 2 and 3 or 1 and 2 standard deviations, respectively, above untreated control wells)	1.2		% YFP quench [2]: 92%
C[C@]12CCC3C(CC[C@H]4C[C@@H](Cl)CC[C@]34C)C1CCC2=O (stereo partly drawn) [3-beta chloroandrostanone]				signal in the trafficking assay ([1]; 24 hours): consistently elevated signal
N[C@H]1CONC1=O [(S)-(−)-Cycloserine]	W (Medium and weak hits were defined as compounds giving a cell fluorescence signal that was between 2 and 3 or 1 and 2 standard deviations, respectively, above untreated control wells)	1.4		% YFP quench [2]: 98%
CC(=O)c1ccc(S(=O)(=O)NC(=O)NC2CCCCC2)cc1 [Acetohexamide]	W (Medium and weak hits were defined as compounds giving a cell fluorescence signal that was between 2 and 3 or 1 and 2 standard deviations, respectively, above untreated control wells)	1.0	88%	
Nc1ncnc2c1ncn2[C@@H]1O[C@H](COP(=O)(O)O)[C@@H](O)[C@H]1O.O [Adenosine 5′-monophosphate monohydrate]	W (Medium and weak hits were defined as compounds giving a cell fluorescence signal that was between 2 and 3 or 1 and 2 standard deviations, respectively, above untreated control wells)	1.1	78%	
c1ccc(CNc2ncnc3[nH]cnc23)cc1 [Aminopurine, 6-benzyl]	W (Medium and weak hits were defined as compounds giving a cell fluorescence signal that was between 2 and 3 or 1 and 2 standard deviations, respectively, above untreated control wells)	1.6		% YFP quench [2]: 89%
CC1=CC(=O)C2=C(C)C[C@H](O)[C@@H]3[C@H](OC(=O)[C@H]3C)[C@H]12 [Austricine hydrate]	W (Medium and weak hits were defined as compounds giving a cell fluorescence signal that was between 2 and 3 or 1 and 2 standard deviations, respectively, above untreated control wells)	1.1	91%	
NC(=O)N1c2ccccc2C=Cc2ccccc21 [Carbamazenine]	W (Medium and weak hits were defined as compounds giving a cell fluorescence signal that was between 2 and 3 or 1 and 2 standard deviations, respectively, above untreated control wells)	1.1		% YFP quench [2]: 86%
CCOC(=O)n1ccn(C)c1=S [Carbimazole]	W (Medium and weak hits were defined as compounds giving a cell fluorescence signal that was between 2 and 3 or 1 and 2 standard deviations, respectively, above untreated control wells)	1.0	95%	
Clc1ccc(Cn2c(CN3CCCC3)nc3ccccc32)cc1 [Clemizole hydrochloride]	W (Medium and weak hits were defined as compounds giving a cell fluorescence signal that was between 2 and 3 or 1 and 2 standard deviations, respectively, above untreated control wells)	1.5	84%	
C[C@@H]1CCC[C@H](C)N1NC(=O)c1ccc(Cl)c(S(N)(=O)=O)c1 [Clopamide]	W (Medium and weak hits were defined as compounds giving a cell fluorescence signal that was between 2 and 3 or 1 and 2 standard deviations, respectively, above untreated control wells)	1.1	79%	
C#CCN(C)CCCOc1ccc(Cl)cc1Cl [Clorgyline hydrochloride]	W (Medium and weak hits were defined as compounds giving a cell fluorescence signal that was between 2 and 3 or 1 and 2 standard deviations, respectively, above untreated control wells)	1.0	77%	
Cc1[nH]ccc2c1[nH]c1cc(=O)ccc12 [Harmol hydrochloride dihydrate]			92%	
NC(=O)N/N=C/c1ccc([N+](=O)[O-])o1 [Nitrofural]			94%	
CN(Cc1cc(Br)cc(Br)c1N)C1CCCCC1 [bromhexine]				signal in the trafficking assay ([1]; 24 hours): consistently elevated signal
N.N.O=C([O-])C1(C(=O)[O-])CCC1.[Pt+2] [carboplatin]				ΔF508-CFTR correctors identified by highthroughput screening: hit class ([1]; 24 hours): strong hits
O=C(N[C@H](CO)[C@H](O)c1ccc([N+](=O)[O-])cc1)C(Cl)Cl [chloramphenicol]				ΔF508-CFTR correctors identified by highthroughput screening: hit class ([1]; 24 hours): strong hits
COC(=O)c1c(Cl)c(Cl)c(C(=O)OC)c(Cl)c1Cl [dacthal]				ΔF508-CFTR correctors identified by highthroughput screening: hit class ([1]; 24 hours): strong hits
O=c1c(-c2ccc(O)cc2)coc2cc(O)ccc12 [daidzein]				signal in the trafficking assay ([1]; 24 hours): consistently elevated signal
C[C@]12CC[C@H](O)CC1=CC[C@@H]1[C@@H]2CC[C@]2(C)C(=O)CC[C@@H]12 [dyhydroepiandrosterone]				signal in the trafficking assay ([1]; 24 hours): consistently elevated signal
CC1(C)[C@@H](O[C@H]2O[C@H](C(=O)O)[C@@H](O)[C@H](O)[C@H]2O[C@@H]2O[C@H](C(=O)O)[C@@H](O)[C@H](O)[C@H]2O)CC[C@]2(C)[C@H]3C(=O)C=C4[C@@H]5C[C@@](C)(C(=O)O)CC[C@]5(C)CC[C@@]4(C)[C@]3(C)CC[C@@H]12 [glycyrrhizic acid]				ΔF508-CFTR correctors identified by highthroughput screening: hit class ([1]; 24 hours): strong hits
CC(=O)O[C@H]1C[C@@H](OC(C)=O)C(C)(C)[C@@H]2C[C@@H](OC(C)=O)[C@]3(C)[C@H](CC[C@@]4(C)[C@H](c5ccoc5)OC(=O)[C@H]5O[C@@]534)[C@@]12C [khivorin]				signal in the trafficking assay ([1]; 24 hours): consistently elevated signal
O=C1N[C@@H]2[C@@H](O)[C@@H](O)[C@H](O)[C@@H](CO)N2C1=O [kifunesine]				increase in signal, suitability as positive control for the corrector assay screen ([1]; kifunesine 100 μM, Sodium 4 Phenylbutyrate 1 mM, curcumin 40 μM, 24 hours): not sufficient to act as a positive control
didectylkhivorin				signal in the trafficking assay ([1]; 24 hours): consistently elevated signal
